This series in a line: Ligand protonation constants (potentiometric titration). In kind it is physicochemical. The method, then: The protonation constants for chelates of the invention are readily determined by potentiometric titrations. These constants are defined by eq 2:
As previously reported, (Turowski et al., Inorg. Chem., 27:474 (1988)) potentiometric titrations were performed using an automated apparatus consisting of a Accumet pH meter (models 925, 825MP or 15), a pH electrode (Orion Ross semi-micro combination, Cole Parmer semi-micro combination or Corning high performance combination electrodes), an autoburet (Metrohm 665 Dosimat or 702 SM Titrino) fitted with a 5 mL piston exchange unit and a jacketed Ar swept titration cell maintained at 25.0° C. by a Lauda K-2/R or Neslab RTE-111 constant temperature circulating bath. The electronic systems were integrated for automated collection with an IBM PC clone.
In this study, ligand and metal complex solutions were titrated from low to high pH and back again if possible. Titrations for the Zn/HOPY systems were not reversible, presumably due to the formation of mixed ML hydroxide complexes. […] Formation constants calculated from the potentiometric titration data were determined with the aid of a FORTRAN non-linear least-squares refinement program (BETA 90). […] Although this is a low concentration for potentiometric titrations, the buffer regions corresponding to the protonation steps are around neutral pH, and so could still be determined.

Take `Cc1nc(C(=O)NCCN(CCNC(=O)c2nc(C)n(C)c(=O)c2O)CCNC(=O)c2nc(C)n(C)c(=O)c2O)c(O)c(=O)n1C` [TREN-HOPY, Tris[(2,3-Dimethyl-5-hydroxy-6-carboxamido-4-pyrimidinone)ethyl]amine]: the pKa was 6.37.

The values above are taken from US7718781B2, “Hydroxypyridonate and hydroxypyrimidinone chelating agents” (The Regents of the University of California, priority 2001, dated 2010).
